Columns and labels:
[1] = tested on: Human keratinocytes; experiment: Keratinocyte microsphere phagocytosis dose-response, image analysis of fluorescent beads; format: cell-based; conditions: two days; SLIGRL 0, 5 and 10 µM; Compound I 1pM to 1µM; STI 0.01 to 1 mg/ml
Protocol: In this example, human primary keratinocytes or the human keratinocyte cell line HaCaT were used as in vitro model systems to study the effect of PAR-2 regulators on keratinocyte phagocytosis. The human primary keratinocytes used are commercially available from Clonetics (San Diego, CA). Cells were plated on chamber slides, at 2 chambers/slide and 60,000 cells/chamber. Cells were treated once daily, for two or three days, with Compound I (1µM), SLIGRL (10µM), or vehicle (Phosphate-buffered saline, ("PBS") from Gibco-BRL (Gaithersburg, MD). After two or three days of exposure to the test compounds, cells were exposed to Nile-red or FITC fluorescent microspheres, 1 µm in diameter, 50 microspheres/cell, for two hours at 37°C. Microspheres were from Molecular Probes (Eugene, OR), and were processed according to manufacturer's instructions. Following that treatment, cells were incubated with 15% Fetal Bovine Serum ("FBS", from Gibco-BRL), for 15 minutes at 37°C and rinsed with PBS. At that time, chambers were separated from the slides, and the slides were covered with glycerol and coverslips. Fluorescent microscopy was performed using a Zeiss Axiovert 35 or a Nikon Optiphot-2 microscope. […]
Image analysis of the fluorescent beads inside the keratinocytes was used as an alternative way to quantify the phagocytic effect in this system. […]

[2] = tested on: ICAM-1; experiment: ICAM-1 immuno-precipitation and Western blotting in keratinocytes; format: cell-based; conditions: treated keratinocytes; Figure 6B
Protocol: Immuno-precipitation and Western blotting experiments were performed, according to known methods, to assess the level of ICAM-1 protein in treated keratinocytes.

[3] = tested on: ICAM-1; experiment: ICAM-1 immunofluorescent staining of keratinocytes; format: cell-based, human; conditions: vs untreated keratinocytes; Figure 6A
Protocol: Intercellular adhesion molecule-1 (ICAM-1) is an inducible cell-surface glycoprotein that is implicated in cell-cell adhesion, cell membrane raffling and phagocytosis. Therefore, the effect of PAR-2 modulation on ICAM-1 was tested. Keratinocytes were grown in chamber slides and treated with SLIGRL, Compound I and STI as described, followed by immunofluorescent staining for ICAM-1 using standard procedures. Normal donkey serum, (used at 1:5 dilution), was obtained from Jackson Immunoresearch Laboratory (Westgrove, PA). A polyclonal goat antihuman ICAM-1 antibody, (used at 1:200 dilution), was obtained from R&D Systems (Minneapolis, MN), and FITC-conjugated donkey anti-goat antibody was obtained from Jackson Immunoresearch Laboratory. […] In untreated keratinocytes, ICAM-1 was localized mainly to the plasma membrane, with some staining at the nuclear membrane.

[4] = tested on: Keratinocytes; experiment: F-actin staining, cytoskeletal organization; format: cell-based; conditions: Compound I 10 nM, STI 0.1 mg/ml, SLIGRL 5 µM; Figure 9
Protocol: Therefore, the organization of F-actin filaments following PAR-2 modulation was tested. Keratinocytes were treated with Compound I (10 nM), STI (0.1 mg/ml), or with SLIGRL (5 µM) as described in Example 1, and stained for F-actin using standard techniques.

[5] = tested on: macrophage cell line IC-21; experiment: Vybrant Phagocytosis Assay Kit, ingestion of fluorescein-labeled E. Coli K-12 particles; format: cell-based; conditions: treated overnight; 100nM Compound I, 5µM SLIGRL, 0.1 mg/ml STI; untreated control = 100; one of three experiments
Protocol: To better quantify the level of phagocytosis, the "vybrant™ Phagocytosis Assay Kit" of Molecular Probes (Eugene, Oregon) was used, following manufacturer's instructions, with modification of cell culture conditions for the IC-21 cell line. This kit uses Fluorescein-labeled E. Coli K-12 particles, and is designed for quantifying the effects of drugs or other environmental factors on phagocytic functions. Macrophages were treated overnight with 100nM of Compound I, 5µM of SLIGRL, or 0.1 mg/ml of STI, all dissolved in PBS. The ability of the treated macrophages to ingest the fluorescent E. Coli, as measured by this kit, is documented in Table 1. This experiment was repeated three times.
In order to verify the quantitative nature of the macrophage-phagocytosis assay, a dose-response experiment was performed. Macrophages were treated with 0, 0.01, 0.1 and 1 mg/ml of STI, and the experiment was performed as described in Example 3. […] Each experiment was repeated three times.

[6] = tested on: human keratinocyte cell line HaCaT; experiment: Fluorescent microsphere ingestion (phagocytosis), fluorescence microscopy; format: cell-based; conditions: Figure 2, repeated at least three times
Protocol: (§1) In order to study the role of the PAR-2 pathway in phagocytosis, several in vitro model systems were used. One system used contained primary human keratinocytes or a human keratinocyte cell line. In this and a number of following examples, cells were treated with test compounds for different amounts of time (from one hour to three days), and samples were then incubated with fluorescent microspheres for two hours. The beads ingested by the cells were photographed using fluorescence microscopy.
(§2) In this example, human primary keratinocytes or the human keratinocyte cell line HaCaT were used as in vitro model systems to study the effect of PAR-2 regulators on keratinocyte phagocytosis. The human primary keratinocytes used are commercially available from Clonetics (San Diego, CA). Cells were plated on chamber slides, at 2 chambers/slide and 60,000 cells/chamber. […]

[7] = tested on: macrophage cell line IC-21; experiment: Fluorescent microsphere ingestion (phagocytosis); format: cell-based; conditions: IC-21 macrophages
Protocol: (§3) In this example, human primary keratinocytes or the human keratinocyte cell line HaCaT were used as in vitro model systems to study the effect of PAR-2 regulators on keratinocyte phagocytosis. The human primary keratinocytes used are commercially available from Clonetics (San Diego, CA). Cells were plated on chamber slides, at 2 chambers/slide and 60,000 cells/chamber. Cells were treated once daily, for two or three days, with Compound I (1µM), SLIGRL (10µM), or vehicle (Phosphate-buffered saline, ("PBS") from Gibco-BRL (Gaithersburg, MD). After two or three days of exposure to the test compounds, cells were exposed to Nile-red or FITC fluorescent microspheres, 1 µm in diameter, 50 microspheres/cell, for two hours at 37°C. Microspheres were from Molecular Probes (Eugene, OR), and were processed according to manufacturer's instructions. Following that treatment, cells were incubated with 15% Fetal Bovine Serum ("FBS", from Gibco-BRL), for 15 minutes at 37°C and rinsed with PBS. At that time, chambers were separated from the slides, and the slides were covered with glycerol and coverslips. Fluorescent microscopy was performed using a Zeiss Axiovert 35 or a Nikon Optiphot-2 microscope.
The experiment described in Example 1 was repeated using the macrophage cell line IC-21 (obtained from the ATCC), which shares phagocytic characteristics with peritoneal macrophages. […]

[8] = tested on: MelanoDerm equivalents; experiment: Melanosome transfer (pigmentation) in melanocyte-containing equivalents; format: cell-based; conditions: same result in monolayer co-cultures with keratinocyte/melanocyte contact
Protocol: (§4) Since PAR-2 is expressed in keratinocytes, but not in melanocytes, the possible requirement of keratinocyte-melanocyte contact was tested for the effect of Compound I and SLIGRL on melanosome phagocytosis by the keratinocytes. Primary melanocyte cultures (commercially available from Clonetics, San Diego) were plated under epidermal equivalents (EpiDerm, of MatTek, Ashland, MA) to create an equivalent-monolayer co-culture with no contact between keratinocytes and melanocytes. These co-cultures were compared to MelanoDerm equivalents (of MatTek), where melanocytes are present in the basal layer of the equivalent. Cultures were treated with Compound I, with the […] agonist SLIGRL. As set forth in Table 3, keratinocytes are indicated by "K", melanocytes are indicated by "M", and lack of keratinocyte-melanocyte contact is indicated as "no K-M cont". […] The same result was also observed with monolayer keratinocyte/melanocyte co-cultures having keratinocyte/melanocyte contact.

[9] = tested on: Human keratinocytes; experiment: Timing of effect on keratinocyte microsphere phagocytosis; format: cell-based; set-up: key: +: Plus signs indicate an effect on phagocytosis; -: minus signs indicate no effect on phagocytosis; -/+: plus/minus signs indicate a marginal effect on phagocytosis; conditions: decrease for Compound I, increase for SLIGRL
Protocol: as §3
Human keratinocytes were treated with Compound I or SLIGRL for periods of time ranging from one hour to two days. At the end of the treatment period, the cells were treated with microspheres as described in Example 1. […] Plus signs indicate an effect on phagocytosis, minus signs indicate no effect on phagocytosis, and plus/minus signs indicate a marginal effect on phagocytosis. The effects measured were a decrease for Compound I and an increase for SLIGRL. […] This implies that the PAR-2 signaling results in new protein synthesis, a reduction in protein synthesis when a turnover time is required to eliminate the existing relevant protein(s), or a rearrangement of proteins (as occurs in the reorganization of cytoskeletal components).

[10] = tested on: Primary melanocyte cultures plated under epidermal equivalents (EpiDerm); experiment: Melanosome transfer (pigmentation) in equivalent-monolayer co-culture without keratinocyte-melanocyte contact; format: cell-based; conditions: no keratinocyte/melanocyte contact
Protocol: as §4

[11] = tested on: human primary keratinocytes; experiment: Fluorescent microsphere ingestion (phagocytosis), fluorescence microscopy; format: cell-based; conditions: treated two days; Compound I 1µM, SLIGRL 10µM; vs vehicle control; Figure 1
Protocol: as §1, §2

[12] = tested on: Keratinocytes; experiment: Scanning electron microscopy of cell podia; format: cell-based; conditions: treated two days; vs vehicle-treated controls; Figure 8
Protocol: Both phagocytosis and cell migration involve changes in cell shape. Therefore, the effect of the PAR-2 pathway reagents on cell podia were studied using scanning electron microscopy. Keratinocytes were treated with Compound I (identified as "SH00230"), SLIGRL and a buffer vehicle for two days, and then processed for SEM using standard techniques. […] In other words, the cells' "fingers" are shorter and malformed, so they cannot grasp objects as well as can the control cells. […] In other words, these cells have a greater probability for productive interaction with particles. Comparing these SEM pictures in Figure 8, it is clear that SLIGRL-treated cells have a greater ability to interact with particles, while Compound 1-treated cells are less suited for such a task.

[13] = tested on: Human PMN cells; experiment: Boyden chamber chemotactic cell migration towards FMLP; format: cell-based; conditions: with FMLP; cells counted at 115 microns; pretreated with 5 or 0.5 mg/ml STI, 1 or 0.1 µM Compound I; FMLP alone 41
Protocol: Since ICAM-1 is involved in cell migration, cell migration towards a chemotactic peptide was studied in cells treated with Compound I and STI. Human PMN cells were placed in one side of a Boyden chamber, using standard techniques, and a chemotactic peptide (FMLP) was placed in the other chamber. Cells were allowed to migrate into the second chamber, and the number of migrating cells per field and distance of migration were calculated. The experiment was repeated with PMN cells pretreated with one of the following: 5 or 0.5 mg/ml STI, 1 or 0.1 µM Compound I, a buffer vehicle, and with and without chemotactic peptide. The number of cells per field that migrated the same distance as the untreated control was measured. Without the peptide and with no treatment, an average of 19 cells/field were migrating a distance of 80 microns. […] In other words, no cells (or less than 5/field) were identified at 115 microns. […] The ability to inhibit PMN migration is an important constituent of anti-inflammatory compounds.

[14] = tested on: Keratinocytes; experiment: Melanin uptake by keratinocytes, Fontana-Mason staining; format: cell-based; conditions: treated two days; melanin powder two hours; Figure 5A; same results with isolated melanosomes (Figure 5B)
Protocol: This example tests the ability of keratinocytes to acquire melanin or melanosomes in vitro, and thus function as a simplified system for melanosome uptake in the skin. Keratinocytes were plated in glass chamber-slides as described earlier, and were treated for two days with SLIGRL, Compound I or STI. At that time, melanin powder (from Sigma, St. Louis, MO) was mixed in sterile PBS at 10 µg/ml, and was added to the culture media (1:10 dilution) for two hours. Cells were then washed with PBS and stained with Fontana-Mason ("F&M") staining. F&M stains silver nitrate-reducing molecules, thereby permitting the identification of melanins inside the keratinocytes. […] This system, therefore, can mimic melanosome transfer and melanin distribution in vivo, as skin keratinocytes use melanin as an UV-protective cap over their nuclei. […] The same results were also observed using melanosomes isolated as described in S. Orlow, et al., J.I.D. 100:55-64 (1993) (Figure 5B).

## (S)-N-Methyl-D-phenylalanyl-N-[4-[(aminoiminomethyl)amino]-1-(2-benzothiazolylcarbonyl)butyl]-L-prolinamide [Compound I]
[1]
  phagocytosis with increasing concentrations: dose-dependent decrease in phagocytosis
[2]
  level of ICAM-1 protein: decreased the level of ICAM-1 expression
[3]
  intracellular localization of ICAM-1: less staining was observed at the cytoplasmic membrane, and more at the nuclear membrane
[4]
  actin filaments organization: reduced the ordered organization of the cell cortex
[5]
  % effect (ingestion): 89.9 +/- 13.6%
[6]
  microsphere ingestion: reduce microsphere ingestion
[7]
  number of microspheres ingested: reduced
[8]
  pigmentation by affecting melanosome transfer: reduced
[9]; Time of Treatment 1 hour
  effect on phagocytosis: -
[9]; Time of Treatment 2 hours
  effect on phagocytosis: -
[9]; Time of Treatment 4 hours
  effect on phagocytosis: -
[9]; Time of Treatment 6 hours
  effect on phagocytosis: -
[9]; Time of Treatment 8 hours
  effect on phagocytosis: -/+
[9]; Time of Treatment 16 hours
  effect on phagocytosis: +
[9]; Time of Treatment 24 hours
  effect on phagocytosis: +
[9]; Time of Treatment 48 hours
  effect on phagocytosis: +
[10]
  effect on melanosome transfer, measured as the level of pigmentation: no effect on melanosome transfer
[11]
  quantity of ingested microspheres: dramatic reduction in the quantity of ingested microspheres
[12]
  shape of cell podia: dramatically shorter podia
[13]
  Cells/Field: <5
[14]
  uptake of melanin by keratinocytes: dramatically reduce the uptake of melanin

Reference: patent publication EP1037653B1, “COMPOSITIONS AND METHODS FOR REGULATING PHAGOCYTOSIS AND ICAM-1 EXPRESSION” (JOHNSON & JOHNSON CONSUMER COMPANIES, INC., priority 1997, dated 1999)
